Source: patent US9969744B2, “Compounds for use in cognition improvement” (FUNDACIÓN PARA LA INVESTIGACIÓN MÉDICA APLICADA, priority 2014, dated 2018)
Marks after values point to notes of the source that are not given here.

Columns and labels:
[1] = test system: aged-Tg2576 mice; experiment: Memory function in aged-Tg2576 mice: Morris water maze (MWM); format: in vivo; conditions: Tg2576 mice (16-18 month), chronic treatment 3-5 weeks, 20 mg/Kg i.p.; retention phase, day 4th; standard error in brackets
From the text: (§1) The effect on memory function of compounds of the invention was studied in Tg2576 mice (16-18 month) after a chronic treatment of 3-5 weeks by using two different behavioral tasks: the Fear Conditioning (FC) and the Morris water maze (MWM) test, Table 5 (below)
The MWM test was used to evaluate spatial memory. After treatments, groups of animals underwent spatial reference learning and memory testing in the MWM. The water maze was a circular pool (diameter 1.2 m) filled with water maintained at 20° C. and made opaque by the addition of non-toxic white paint. Mice were trained for three consecutive days (8 trials/day) swimming to a raised platform (visible-platform). No distal visible cues were present during this phase. […] In the probe trials the platform was removed from the pool, and the percentage of time spent in the quadrant where the platform was previously set was recorded. All trials were monitored by a camera above the center of the pool connected to a SMART-LD program (Panlab S.L., Barcelona, Spain) for subsequent analysis of escape latencies, swimming speed, path length and percent time spent in each quadrant of the pool during probe trials. […]

[2] = test system: AcH3; experiment: In-vivo AcH3 in hippocampus of wild type mice; conditions: 1 h after single dose 40 mg/kg i.p.
Procedure: Another group of animals received the vehicle (1/1/8, v:v:v, DMSO/Tween 20/saline). One hour later, mice were sacrificed by cervical dislocation and their hippocampus was quickly dissected from the brains. Total tissue homogenates were obtained by homogenizing the hippocampus in a cold lysis buffer with protease inhibitors (0.2 M NaCl, 0.1 M HEPES, 10% glycerol, 200 mM NaF, 2 mM Na4P2O7, 5 mM EDTA, 1 mM EGTA, 2 mM DTT, 0.5 mM PMSF, 1 mM Na3VO4 and Complete Protease Inhibitor Cocktail, Roche Diagnostics). The homogenate was then centrifuged at 14,000×g at 4° C. for 20 min and the supernatant aliquoted and stored at −80° C. Total protein concentrations were determined using the BioRad Bradford protein assay (BioRad Laboratories). Protein samples were analyzed as described in the “in vitro” section.

[3] = test system: aged-Tg2576 mice; experiment: Memory function in aged-Tg2576 mice: Fear Conditioning (FC); format: in vivo; conditions: Tg2576 mice (16-18 month), chronic treatment 3-5 weeks, 20 mg/Kg i.p.; standard error in brackets
Procedure: as §1
The behavioural procedure of FC task involved three phases: habituation, training and testing. During habituation phase, mice were habituated to the conditioning box (context) for 5 min with no stimuli presented. 24 hours later (training phase), mice were placed in the training chamber and allowed to explore for 2 min, afterward, a footshock (0.3 mA) unconditioned stimulus was administered (2 s) and 30 s after mice were returned to their home cage. Mice were returned to the conditioning chamber 24 h after training and allowed to explore the context for 2 min, during which freezing behavior was recorded (contextual long term memory). Freezing scores were expressed as percentages. The conditioning procedure was carried out in a StartFear system (Panlab S.L., Barcelona, Spain) that allows recording and analysis of the signal generated by the animal movement through a high sensitivity Weight Transducer system. The analogical signal is transmitted to the FREEZING and STARTLE software modulated through the load cell unit for recording purposes and posterior analysis in terms of activity/immobility.

[4] = test system: acetylated histone 3 at Lys9 (AcH3K9); experiment: HDAC activity using SHSY-5Y cell line (Western blot, histone 3 acetylation); format: cell-based, human; conditions: SHSY-5Y cells, 24 hours
Procedure: HDAC inhibition leads to the corresponding functional response, increase in AcH3 level. Therefore, the cellular assay to conclude HDAC activity was assessed by Western blot analysis using specific antibodies against acetylated histone 3 at Lys9 (AcH3K9). Cell cultures were treated at 100 nM, 500 nM, 1 μM and/or 5 μM with compounds of the invention or known PDE inhibitors during 24 hours and, Table 1 (below) describes the functional activity: histone 3 acetylation level (AcH3) vs basal (no treatment).
A human neuroblastoma cell line (SHSY-5Y) was used. Cell line was obtained from ATCC (CRL-2266) and cultured in 35 mm plates (Becton Dickinson, NJ).
The cells were grown to 90% confluence at 37° C. in an atmosphere of 5% CO2 and in Dulbecco's modified Eagle's medium supplemented with Glutamax (Gibco, Invitrogen, CA), 100 units/ml penicillin/streptomycin, 1×MEM nonessential amino acids and 10% fetal bovine serum (Gibco, Invitrogen, CA).
Cells were collected and sonicated in a buffer containing a cold lysis buffer with protease inhibitors (0.2 M NaCl, 0.1 M HEPES (4-(2-hydroxyethyl)-1-piperazineethanesulfonic acid), 10% glycerol, 200 mM NaF, 2 mM Na4P2O7, 5 mM EDTA (ethylenediaminetetraacetic acid), 1 mM EGTA (ethylene glycol tetraacetic acid), 2 mM DTT (dithiothreitol), 0.5 mM PMSF (phenylmethylsulfonyl fluoride), 1 mM Na3VO4 and Complete Protease Inhibitor Cocktail, Roche Diagnostics), centrifuged at 14,000×g 4° C. for 20 min and the supernatant was aliquoted and stored at −80° C. Total protein concentrations were determined using the BioRad Bradford protein assay (BioRad Laboratories).
Protein samples were mixed with Laemmli sample buffer, resolved onto Sodium Dodecyl Sulfate (SDS)-polyacrylamide gels and transferred to nitrocellulose membrane. The membranes were blocked with 5% milk, 0.05% Tween-20 in PBS (Phosphate-Buffered Saline) or TBS (Tris-Buffered Saline) followed by overnight incubation with the following primary antibodies: rabbit polyclonal anti-acetylated Histone 3 (acetyl K9) (Cell Signalling Technology), rabbit polyclonal anti-total Histone 3 (Millipore), in the corresponding buffer. All the antibodies were used at 1:1000 dilution except the mouse monoclonal anti-β-actin which was used at 1:50.000. Following two washes in TBS/Tween20 and one wash in TBS alone, immunolabeled protein bands were detected by using HRP-conjugated anti-rabbit or anti-mouse antibody (Santa Cruz Biotechnology; dilution 1:5.000) following an enhanced chemiluminescence system (ECL, GE Healthcare Bioscience, Buckinghamshire, UK), and autoradiographic exposure to HyperfilmtECL (GE Healthcare Bioscience). Quantity One™ software v.4.6.3 (Bio-Rad) was used for quantification.

CCCc1nn(C)c2c(=O)[nH]c(-c3cc(Cc4ccc(C(=O)Nc5ccccc5N)cc4)ccc3OCC)nc12 [Example 1-11, N-(2-aminophenyl)-4-[[4-ethoxy-3-(1-methyl-7-oxo-3-propyl-6H-pyrazolo[4,3-d]pyrimidin-5-yl)phenyl]methyl]benzamide]
MWM (% of time on right quadrant) [1]: 33.83 (2.24)^c % | AcH3 increment vs basal [2]: ++ (basal x1≤(++)<basal x2) | FC (% freezing) [3]: 59.65 (9.2)^c % | AcH3: increment in Histone 3 acetylation level vs basal ([4]; compound concentration 100 nM): ++ (basal x1.4≤(++)<basal x2) | AcH3: increment in Histone 3 acetylation level vs basal ([4]; compound concentration 500 nM): ++ (basal x1.4≤(++)<basal x2) | AcH3: increment in Histone 3 acetylation level vs basal ([4]; compound concentration 1 μM): +++ (basal x2≤(+++)<basal x3)
